Results from paper PMC9738062, “Selectively Halogenated Flavonolignans—Preparation and Antibacterial Activity” (International Journal of Molecular Sciences, 2022).

What was measured:
[1] = test system: Vibrio campbellii BAA 1119 (AI-2); experiment: Viability of the quorum-sensing reporter culture (resazurin assay), AI-2 strain; assay type: cell-based; conditions: BAA1119, V. campbellii BAA 1119, resazurin assay, read-out: IC50 (concentration that halved the viability)
From the text: (§1) Commercially available strains of Vibrio campbellii were used to evaluate the ability of flavonoids and their derivatives to inhibit bacterial quorum sensing. V. campbellii uses two types of autoinducing molecules for its communication—N-acyl-homoserine lactones (Autoinducer I, AI-1, strain BAA 1118) and furanosyl borate diester (Autoinducer II, AI-2, strain BAA 1119). AI-1-based communication is mainly used by Gram-negative bacteria, while AI-2-based communication is found in both Gram-negative and Gram-positive bacteria. The mutant strains of V. campbellii BA1118 and BA1119 respond only to AI-1 or AI-2, respectively, and the response to the respective AI concentration is measured as luminescence. The higher the AI concentration, the higher the luminescence signal. The ability to inhibit the communication was expressed as the selectivity index (SI), calculated as the ratio between the concentration that halved the viability (IC50) and the concentration that halved the communication (EC50) of the respective V. campbellii strains. […] The antimicrobial activity of quorum-sensing inhibitors is undesirable because it creates a selection pressure and can lead to the development of resistance.
(§2) The inhibition of bacterial extracellular communication was measured using Vibrio campbellii strains BAA-1118 and BAA-1119. The experiment was performed according to the methods of Szemerédi et al.. Briefly, 5 × 10^5 CFU/mL (colony-forming units per milliliter) were seeded in an Autoinducer Bioassay medium (NaCl 17.5 g/L, MgSO4 12.3 g/L, Casamino acids 2 g/L, 10 mL of 1 M potassium phosphate pH 7.0, 10 mL of 0.1 M L-arginine, and 10 mL of glycerol in 970 mL of deionized water) in a 96-well plate. Immediately, the tested compounds were added at the final concentration of 0.2–200 µM and luminescence was recorded for 16 h by a SpectraMax i3x microplate reader set at 30 °C, an integration time of 10,000 ms, and shaking for 60 s before measurement. […] The selectivity index was calculated as the […]. The EC50 and IC50 were calculated using GraphPad Prism software version 5.00 for Windows with a nonlinear regression curve fit.

[2] = test system: Vibrio campbellii BAA 1118 (AI-1); experiment: microbe, parasite or virus in culture; assay type: cell-based; conditions: for EC50: Vibrio campbellii, BAA1118, 16 h, read-out: EC50 (concentration that halved the communication); for SI (selectivity index): ratio IC50 (viability) / EC50 (communication), BAA 1118
From the text: as §1, §2

[3] = test system: Vibrio campbellii BAA 1119 (AI-2); experiment: microbe, parasite or virus in culture; assay type: cell-based; conditions: for EC50: Vibrio campbellii, BAA1119, 16 h, read-out: EC50 (concentration that halved the communication); for SI (selectivity index): ratio IC50 (viability) / EC50 (communication), BAA 1119
From the text: as §1, §2

[4] = test system: Vibrio campbellii BAA 1118 (AI-1); experiment: Viability of the quorum-sensing reporter culture (resazurin assay), AI-1 strain; assay type: cell-based; conditions: BAA1118, V. campbellii BAA 1118, resazurin assay, read-out: IC50 (concentration that halved the viability)
From the text: as §1, §2

[5] = Ferric reducing antioxidant power (FRAP); conditions: Fe2+ equivalents
Procedure: (§3) To further elucidate how halogenation affects other properties of the flavonoids studied, their 2,2′-azino-bis-(3-ethylbenzothiazoline-6-sulfonic acid) cation (ABTS) and 1,1-diphenyl-2-picrylhydrazyl (DPPH) radical scavenging, the Folin–Ciocalteu reagent (FCR) reducing, the ferric-reducing antioxidant power (FRAP), and the anti-lipoperoxidation activities were evaluated by in vitro methods (Supplementary Information Tables S1 and S2).
(§4) The antiradical activity was evaluated by the ability to scavenge ABTS and DPPH radicals. Reducing capacity was assessed by the ability to reduce the Folin–Ciocalteu reagent (FCR) and ferric ions (FRAP). The ability to inhibit lipid peroxidation of pooled male rat microsomal liver membranes induced by tert-butyl hydroperoxide was also evaluated and the results were expressed as IC50 values.

[6] = test system: lipopolysaccharide-stimulated macrophages (RAW 264.7); experiment: Inhibition of nitric oxide production (Griess reagent); assay type: cell-based, murine; conditions: Mus musculus, RAW264.7; LPS 100 ng/mL, 24 h; highest tested concentration 100 µM; read-out: NO Production IC50
Procedure: The anti-inflammatory activity of the tested flavonolignans was determined as the ability to reduce nitric oxide production by murine macrophages (RAW 264.7) stimulated by bacterial lipopolysaccharides, as previously described. […] For the experiment, 1 × 10^6 cells/mL was seeded into the 96-well plate (100 µL/well). […] After 24 h, the medium was mixed with Griess reagent (0.04 g/mL), prepared freshly in deionized water at the ratio of 1:1. The absorbance was measured after 15 min at 540 nm by the SpectraMax i3x microplate reader. Cell viability was determined by resazurin assay.

[7] = test system: human dermal fibroblasts (HDF); experiment: Cytotoxicity (resazurin assay, 72 h); assay type: cell-based; conditions: Fibroblast
Procedure: (§5) The cytotoxicity of flavonoids and their halogenated derivatives was determined as their ability to decrease the viability of human dermal fibroblasts (HDF) and doxorubicin-resistant human ovarian carcinomas (HOC/DOX). Both cell lines were cultivated in Dulbecco’s Modified Eagle’s Medium supplemented with fetal bovine serum (FBS, 10% v/v) and 1 × antibiotic antimycotic solution and incubated at 37 °C in the atmosphere of 5% CO2. The experiment was performed according to a previously published method. Briefly, 1 × 10^5 cells/mL were seeded into a 96-well plate (100 µL/well). After 24 h, flavonoids and their derivatives were administered at the concentration range of 31.25–500 µM. After 72 h, the viability was determined by resazurin assay (0.03 mg/mL of resazurin in PBS), where the fluorescence was measured after 2 h of incubation by the SpectraMax i3x microplate reader at a wavelength of 560/590 nm (excitation/emission). The concentration inhibiting half of the population (IC50) was determined using nonlinear regression in GraphPad Prism software. The selectivity index was calculated as the ratio between the IC50 for HDF (control, non-cancerous cells) and the IC50 for HOC/DOX (cancer cells).

[8] = test system: doxorubicin-resistant human ovarian carcinoma (HOC/DOX); experiment: Cytotoxicity (resazurin assay, 72 h); assay type: cell-based; conditions: for IC50: Homo sapiens, 72 h, resazurin assay; for SI (selectivity index): ratio IC50 for HDF / IC50 for HOC/DOX
Procedure: as §5

[9] = test system: multidrug-resistant S. aureus; experiment: Sensitization of antibiotic-resistant bacteria (compound plus breakpoint antibiotic concentration); assay type: cell-based, Staphylococcus aureus; conditions: flavonoid 40 µM, 24 h; for Effect on viability in combination with chloramphenicol: chloramphenicol 8 mg/L
Procedure: (§6) Clinically relevant antibiotics were selected for sensitization testing according to the European Committee on Antimicrobial Susceptibility Testing (EUCAST). Neither colistin and imipenem at breakpoint concentrations (according to EUCAST, […] and […]) affected the growth of the multidrug-resistant clinical strain of P. aeruginosa. Similarly, neither chloramphenicol and gentamicin at breakpoint concentrations ([…], respectively) affected the multidrug-resistant clinical strain of S. aureus. Flavonoids and their derivatives (1–40 µM) were used in combination therapy, along with the breakpoint concentration of antibiotics. After co-incubation, the minimum inhibitory concentration of flavonoids inhibiting the visible growth of bacteria was determined (Table 2).
(§7) Clinical isolates of P. aeruginosa and S. aureus were obtained from the General University Hospital in Prague (Prague, Czech Republic). P. aeruginosa was resistant to ciprofloxacin, oxacillin, ticarcillin, colistin, gentamicin, and imipenem. S. aureus was resistant to ciprofloxacin, gentamicin, erythromycin, chloramphenicol, clindamycin, oxacillin, cefotaxime, and vancomycin. Bacteria were cultivated in Mueller–Hinton broth (MH broth, Merck). The susceptibility of the bacteria was evaluated by the minimum inhibitory concentrations (MIC). The MIC of derivatives in the presence of the antibiotic cut-off concentration was determined according to ISO 20776-1: 2020. The antibiotic cut-off concentration was chosen according to the European Committee on Antimicrobial Susceptibility Testing (EUCAST, Clinical breakpoints—bacteria (ver. 11.0), 1 January 2021). The 40 µM concentration of the derivatives was chosen as the highest concentration for the tests. Cell viability was determined by measuring absorbance (A590 nm) after 24 h incubation at 37 °C, 150 rpm.

[10] = test system: multidrug-resistant P. aeruginosa; experiment: as above; assay type: cell-based, Pseudomonas aeruginosa; conditions: flavonoid 40 µM, 24 h; for Effect on viability in combination with colistin: colistin 2 mg/L; for Effect on viability in combination with imipenem: imipenem 4 mg/L; as to Effect on viability in combination with imipenem: key: -: no effect (100% viability) was observed up to the highest flavonolignan concentration tested (>40 µM); reversion of resistance: the compound reversed the resistant phenotype to a sensitive one
Procedure: as §6, §7

[11] = DPPH radical scavenging; conditions: 1,1-diphenyl-2-picrylhydrazyl radical scavenging
Procedure: as §3, §4

[12] = test system: pooled male rat microsomal liver membranes; experiment: Inhibition of lipid peroxidation induced by tert-butyl hydroperoxide; assay type: biochemical; conditions: male rat microsomes, read-out: ILP IC50
Procedure: as §4

[13] = ABTS cation radical scavenging; conditions: vitamin C equivalent antioxidant capacity
Procedure: as §3, §4

[14] = Folin-Ciocalteu reagent reduction; conditions: gallic acid equivalents
Procedure: as §3, §4

Structure (SMILES)	EC50 [2]	SI (selectivity index) [2]	EC50 [3]	SI (selectivity index) [3]	IC50 [4]	FRAP [Fe2+eq] [5]	IC50 [6]	IC50 [7]	IC50 [8]	SI (selectivity index) [8]	Effect on viability in combination with chloramphenicol [9]	Effect on viability in combination with colistin [10]	Effect on viability in combination with imipenem [10]	IC50 [11]	ABTS [CEAC] [13]	FCR [GAE] [14]	further results
O=c1[nH]cc(F)c(=O)[nH]1 [5-Fluorouracil, reference compound]	0.00039 µM	1.73 ± 0.05	0.00044 µM	7.8 ± 0.5	0.00068 µM												IC50 [1]: 0.00341 µM
[Fe+2] [Fe2+, reference compound]						1.01 Fe2+eq											
COc1ccc2c(c1)c(CC(=O)O)c(C)n2C(=O)c1ccc(Cl)cc1 [Indomethacin, reference compound]							51.3 ± 0.6 µM	222 µM	17.1 ± 0.6 µM	12.94							
CC1(C)[C@H](C(=O)O)N2C(=O)C[C@H]2S1(=O)=O [Sulbactam, reference compound]											reversion of resistance	-	-				Effect on viability in combination with gentamicin ([9]; gentamicin 1 mg/L): -
Cc1c(C)c2c(c(C)c1O)CCC(C)(C(=O)O)O2 (stereo not drawn) [Trolox, reference compound]														3.5 µM			IC50 [12]: 32.7 ± 2.4 µM
COc1cc([C@H]2Oc3cc([C@H]4Oc5c(Br)c(O)cc(O)c5C(=O)[C@@H]4O)ccc3O[C@@H]2CO)ccc1O [compound 19, 8-bromosilybin A]	33.9 ± 1.8 µM	3.4 ± 0.3	4.6 ± 0.3 µM	≥43.1 ± 2.6	115 ± 5.4 µM	0.057 ± 0.002 Fe2+eq	36.4 ± 1.7 µM	77.4 ± 1.1 µM	202 µM	0.38	-	-	-	> 500 µM	0.68 ± 0.03 CEAC	1.01 ± 0.02 GAE	IC50 [1]: > 200 µM
COc1cc([C@@H]2Oc3cc([C@H]4Oc5c(Br)c(O)cc(O)c5C(=O)[C@@H]4O)ccc3O[C@H]2CO)ccc1O [compound 20, 8-bromosilybin B]	44.2 ± 0.7 µM	2.9 ± 0.1	4.7 ± 0.2 µM	≥42.9 ± 2.1	127 ± 4 µM	0.056 ± 0.002 Fe2+eq	38 ± 2.2 µM	97.9 ± 4.4 µM	227 µM	0.43	-	-	-	> 500 µM	0.47 ± 0.01 CEAC	1.10 ± 0.02 GAE	
COc1cc([C@@H]2Oc3cc([C@H]4Oc5c(I)c(O)cc(O)c5C(=O)[C@@H]4O)ccc3O[C@H]2CO)ccc1O [compound 24, 8-iodosilybin B]						0.079 ± 0.002 Fe2+eq								97.1 µM	0.47 ± 0.04 CEAC	1.01 ± 0.02 GAE	
COc1cc([C@H]2Oc3cc([C@H]4Oc5c(I)c(O)c(I)c(O)c5C(=O)[C@@H]4O)ccc3O[C@@H]2CO)ccc1O [compound 25, 6,8-diiodosilybin A]						0.053 ± 0.003 Fe2+eq								> 500 µM	0.41 ± 0.01 CEAC	0.95 ± 0.01 GAE	
COc1cc([C@@H]2Oc3cc([C@H]4Oc5c(I)c(O)c(I)c(O)c5C(=O)[C@@H]4O)ccc3O[C@H]2CO)ccc1O [compound 26, 6,8-diiodosilybin B]						0.048 ± 0.001 Fe2+eq								249 µM	0.48 ± 0.01 CEAC	0.84 ± 0.04 GAE	
COc1cc([C@@H]2Oc3cc([C@H]4Oc5cc(O)c(Cl)c(O)c5C(=O)[C@@H]4O)ccc3O[C@H]2CO)ccc1O [compound 28, 6-Chlorosilybin B]	114 ± 5 µM	1.1 ± 0.1	3.2 ± 0.2 µM	≥62.6 ± 3.6	130 ± 5.9 µM	0.050 ± 0.002 Fe2+eq	52.4 ± 4.5 µM	147 µM	272 µM	0.54	-	-	-	> 500 µM	0.71 ± 0.02 CEAC	1.25 ± 0.01 GAE	IC50 [1]: > 200 µM
O=C(O)c1cc(O)c(O)c(O)c1 [gallic acid, reference compound]																1.00 GAE	
O=C1O[C@H]([C@@H](O)CO)C(O)=C1O [vitamin C, reference compound]															1.01 CEAC		
